Experimental data published in publication PMC11604427 (Frontiers in Pharmacology, 2024).

Target: T1, Human recombinant PKMYT1 enzyme (Homo sapiens, UniProt Q99640)
T1 construct: purchased Abcam
T1 sequence (Q99640 1-499): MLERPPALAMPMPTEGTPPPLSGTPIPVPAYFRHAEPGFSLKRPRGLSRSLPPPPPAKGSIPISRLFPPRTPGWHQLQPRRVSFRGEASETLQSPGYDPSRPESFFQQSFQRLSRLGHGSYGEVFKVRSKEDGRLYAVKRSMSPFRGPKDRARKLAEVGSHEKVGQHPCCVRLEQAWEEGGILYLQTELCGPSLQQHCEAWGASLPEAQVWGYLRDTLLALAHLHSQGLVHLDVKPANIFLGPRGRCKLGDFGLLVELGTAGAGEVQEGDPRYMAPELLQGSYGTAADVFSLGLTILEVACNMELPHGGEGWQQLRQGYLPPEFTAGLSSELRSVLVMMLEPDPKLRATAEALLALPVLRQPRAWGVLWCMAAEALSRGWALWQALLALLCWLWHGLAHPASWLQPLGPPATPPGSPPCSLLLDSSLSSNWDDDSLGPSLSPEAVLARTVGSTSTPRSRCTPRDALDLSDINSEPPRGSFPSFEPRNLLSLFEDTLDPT
Assay: ADP-GLO enzyme inhibition assay
Format: biochemical
Procedure: The ADP-GLO™ kinase assay kit, purchased from Promega Corporation (Madison, WI, United States), included the ADP-GLO reagent, the kinase assay reagent, and ultra-pure ATP and ADP. PKMYT1 enzyme was dissolved in 5 μL of freshly prepared enzyme assay buffer containing 70 mM Hepes, 3 mM MgCl2, 3 mM MnCl2, 50 μg/mL PEG20000, 3 μM sodium orthovanadate, 1.2 mM dithiothreitol, and then injected into 384-well plates. […] The enzymatic reaction was initiated by adding 5 μL of ATP, followed by a 60-min incubation at 30°C. Subsequently, 15 μL of ADP-GLO reagent was added, and the incubation was continued for an additional 40 min at room temperature. Then, 30 μL of kinase detection reagent was introduced, and the samples were incubated for a final 30 min. Luminescence measurements were taken using an Envision plate reader (PerkinElmer). The IC50 value of each tested compound was calculated by GraphPad Prism software.

**Q.** With `Cc1ccc(O)c(C)c1-n1c(N)c(C(N)=O)c2cc(CCCCCC(=O)NO)c(C)nc21` [PKHD-5] as the compound, how does the IC50 (ADP-GLO method) read?
**A.** 3.15 ± 0.21 nM

**Q.** What about the “fold inhibition of PKMYT1 compared with the control compound 39” value (ratio of IC50 values versus compound 39) of the same compound?
**A.** 4.91 fold
